The target of experiment [1] is T1, PDGF-receptor beta enzyme comprising the tyrosine kinase domain (Homo sapiens, UniProt P09619).
T1 construct: from amino acid 545 to 1106 of GenBank Access NO: AAA36427
The experiment in a line: Inhibition of PDGF-receptor kinase activity (cell-free, PLC1 peptide, 33P Flashplate). Format: biochemical. The settings on record: PDGF-R kinase activity; for inhibition at 10 µM: compound at 10 uM, read-out: Percent Inhibition @ 10 uM; for IC50: read-out: IC50. The procedure, abridged: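 The IC50 is the inhibitor level halving kinase activity relative to inhibitor-free wells, measured as 33P captured on a streptavidin-bound biotin-PLC1 peptide. The reaction ran 60 min at 30 °C in pH 8 Tris buffer with 1 mM DTT, 5 μM ATP and the 545–1106 kinase-domain enzyme.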

A further experiment deals with c-Abl kinase (Abelson murine leukemia virus, UniProt P00521). As to the kind of experiment: Inhibition of c-Abl kinase activity (cell-free, Abl peptide substrate, 33P Flashplate). Type of experiment: biochemical. The settings on record: IC50 for the c-Abl kinase activity. As to the method:
The inhibitory activity of compounds within the scope of the invention on c-Abl kinase activity was tested according to the following procedure.
• 1. 10× Kinase Buffer [500 mM Tris-HCl pH=8, 100 mM MgCl2, 1 mM Na3VO4] • 2. 10 mM DTT [final concentration 1 mM] • 3. 10 mM ATP [final concentration 5 μM] (Gibco, Cat No:18330-019, Carlsbad, Calif.) • 4. ^33P-γ-ATP [NEG-602H; 2000–3000 Ci/mmol], 2 μCuries per well at 10 μCi/μl (0.2 μl/well) • 5. Abl enzyme (New England Biolabs, Cat No. P6050L, Beverly, Mass.) at 100 Units/μl use 10 Units/well (0.1 μl/well) • 6. Enzyme Dilution Buffer [50 mM Tris-HCl pH=8.0, 0.1% BSA] • 7. Wash/Stop Buffer [PBS+100 mM EDTA] • 8. NEN Streptavidin Flashplates (New England Nuclear, Cat No. SMP-103, Boston, Mass.). • 9. Abl Peptide Substrate (Biotin-[…]-amide) at 1 mM in 50 mM Tris-HCL pH=8.0. (Use at 1.0 μM). Procedure
Reagents were first mixed according to the following regimen:
The above reaction mixture was dispensed into each well of a Flashplate at 70 μl/well. To test the effect of a compound on Abl kinase activity, the test compound either in a fixed concentration or in serially diluted concentrations in 100% DMSO was added to appropriate wells at 1 μl/well.
Enzyme Abl was diluted in enzyme dilution buffer as following:
The kinase reaction was started by adding 30 μl of diluted Abl enzyme solution to each well on the Flashplate containing hot ATP (2 μCi/well) and Abl peptide substrate (at 1 μM final conc.), except wells of column 12 rows E and F, which were used to calculate the plate background. The Flashplate was swirled to mix and was incubated at 30° C. for 60 minutes. Then, the reaction mixture was discarded and the Flashplate was washed 3 times each with 200 μL Wash/Stop Buffer. Subsequently, each well on the Flashplate was filled with 200 μl of Wash/Stop buffer. The amount of ^33P retained in each well was measured using a Packard TopCount after the plate was sealed with a transparent plate sealer.
In order to test the potency of inhibition of present compounds, an IC50 for an individual compound was measured using the above procedure. As used herein, the IC50 for c-Abl kinase activity refers to the concentration of an inhibitor at which the activity of c-Abl kinase is reduced by one-half as compared with reactions containing no inhibitor.

“And” between values parts separate entries of the source, which are not always exact repeats. Identical values can stand only once.

T1 sequence (P09619 545-1106): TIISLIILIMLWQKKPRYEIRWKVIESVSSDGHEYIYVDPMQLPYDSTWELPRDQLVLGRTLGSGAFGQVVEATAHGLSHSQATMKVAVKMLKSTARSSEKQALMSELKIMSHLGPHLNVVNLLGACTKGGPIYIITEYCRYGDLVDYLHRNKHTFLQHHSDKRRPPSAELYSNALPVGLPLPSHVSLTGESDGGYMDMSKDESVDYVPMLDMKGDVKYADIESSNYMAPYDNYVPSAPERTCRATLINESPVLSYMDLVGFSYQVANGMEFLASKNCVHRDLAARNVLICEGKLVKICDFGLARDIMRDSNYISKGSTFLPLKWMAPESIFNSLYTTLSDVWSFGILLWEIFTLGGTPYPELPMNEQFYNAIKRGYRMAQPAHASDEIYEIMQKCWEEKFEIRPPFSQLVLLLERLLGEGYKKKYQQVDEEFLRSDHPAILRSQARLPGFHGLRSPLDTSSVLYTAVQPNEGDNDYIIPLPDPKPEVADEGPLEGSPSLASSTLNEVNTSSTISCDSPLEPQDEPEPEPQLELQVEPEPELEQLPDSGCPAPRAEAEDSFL
c-Abl kinase, sequence (P00521 115-385): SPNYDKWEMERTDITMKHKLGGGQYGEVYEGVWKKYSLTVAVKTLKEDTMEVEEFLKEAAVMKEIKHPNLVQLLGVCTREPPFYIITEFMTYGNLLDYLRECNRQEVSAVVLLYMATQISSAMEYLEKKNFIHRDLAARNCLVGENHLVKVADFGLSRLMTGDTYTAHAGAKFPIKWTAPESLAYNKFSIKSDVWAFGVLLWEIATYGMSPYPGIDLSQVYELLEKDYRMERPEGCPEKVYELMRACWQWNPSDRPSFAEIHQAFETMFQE

In the case of `Fc1cccc(Nc2[nH]nc3c2oc2ccccc23)c1` [Compound 380, (3-Fluoro-phenyl)-(2H-8-oxa-2,3-diaza-cyclopenta[a]inden-1-yl)-amine], in experiment [1], the inhibition (in general, the relative decrease from the control value, in per cent) at 10 µM was determined as 99.5% and the IC50 (commonly the concentration needed to halve the response being measured) amounted to 15.3 nM. Also, the half-inhibitory concentration (IC50) at c-Abl kinase was found to be 327 nM.
For `COc1cc2c(cc1OCCCN(C)C)Cc1c-2n[nH]c1Nc1ccc(F)c(Cl)c1` [Compound 200, (3-Chloro-4-fluoro-phenyl)-[6-(3-dimethylamino-propoxy)-7-methoxy-2,4-dihydro-indeno[1,2-c]pyrazol-3-yl]-amine], in experiment [1], the inhibition at 10 µM is 87%. Further, the figures for the 50% inhibitory concentration (IC50) (in experiment [1]; on c-Abl kinase) were 2 nM and 20 nM, respectively.
Turning to `COc1cc2c(cc1OC)C(C)c1c-2n[nH]c1Nc1cccc(Br)c1` (stereo not drawn) [Compound 256, (3-Bromo-phenyl)-(6,7-dimethoxy-4-methyl-2,4-dihydro-indeno[1,2-c]pyrazol-3-yl)-amine], the inhibition at 10 µM in experiment [1] came out at 89%. Besides, the IC50 in experiment [1] stood at 8 nM; on c-Abl kinase it was 55 nM.
On the same counts, the results for `COc1cccc(Nc2[nH]nc3c2Cc2cc(N)ccc2-3)c1` [Compound 118, N3-(3-Methoxy-phenyl)-2,4-dihydro-indeno[1,2-c]pyrazole-3,6-diamine] are 74%, 21.3 nM and 427 nM.
Turning to `COc1cccc(Nc2[nH]nc3c2Cc2cc(OCC(O)CN4CCCC4)c(OC)cc2-3)c1` (stereo not drawn) [Compound 270, 1-[7-Methoxy-3-(3-methoxy-phenylamino)-2,4-dihydro-indeno[1,2-c]pyrazol-6-yloxy]-3-pyrrolidin-1-yl-propan-2-ol], in experiment [1], the inhibition at 10 µM turned out to be 107% and the half-inhibitory concentration (IC50) worked out at 0.429 nM. Also, the IC50 on c-Abl kinase is 36 nM.
On the same counts, the results for `Clc1cccc(Nc2[nH]nc3c2Cc2cc4c(cc2-3)OCO4)c1` [Compound 128, (3-Chloro-phenyl)-(2,9-dihydro-5,7-dioxa-2,3-diaza-cyclopenta[a]-s-indacen-1-yl)-amine] are 88%, 59.6 nM and 313 nM.
`COc1cc2c(cc1OCCCO)Cc1c-2n[nH]c1Nc1cccc(Cl)c1` [Compound 268, 3-[3-(3-Chloro-phenylamino)-7-methoxy-2,4-dihydro-indeno[1,2-c]pyrazol-6-yloxy]-propan-1-ol]: in experiment [1], the inhibition at 10 µM worked out at 84% and the half-maximal inhibitory concentration (IC50) is 1.13 nM. Further, the half-inhibitory concentration (IC50) at c-Abl kinase was 20 nM.
Take `COc1ccc2c(c1)-c1n[nH]c(Nc3ccc(F)cc3)c1C2` [Compound 170, (4-Fluoro-phenyl)-(7-methoxy-2,4-dihydro-indeno[1,2-c]pyrazol-3-yl)-amine]: in experiment [1], the inhibition at 10 µM worked out at 95.5%. The half-maximal inhibitory concentration (IC50) in experiment [1] was 26.8 nM; at c-Abl kinase it was 75 nM.
With `Fc1ccc(Nc2[nH]nc3c2oc2ccccc23)cc1Cl` [Compound 381, (3-Chloro-4-fluoro-phenyl)-(2H-8-oxa-2,3-diaza-cyclopenta[a]inden-1-yl)-amine], in experiment [1], the inhibition at 10 µM was 100% and the IC50 was determined as 54.9 nM. Further, the IC50 at c-Abl kinase stood at 1500 nM.
On to `COc1cccc(Nc2[nH]nc3c2Cc2cc(Cl)ccc2-3)c1` [Compound 190, (6-Chloro-2,4-dihydro-indeno[1,2-c]pyrazol-3-yl)-(3-methoxy-phenyl)-amine], for which, in experiment [1], the inhibition at 10 µM was determined as 80% and the IC50 stood at 40 nM. The IC50 on c-Abl kinase was 69 nM.
On the same counts, the results for `COc1cc2c(cc1OCC(O)CN1CCCC1)Cc1c-2n[nH]c1NCc1ccccc1Cl` (stereo not drawn) [Compound 396, 1-[3-(2-Chloro-benzylamino)-7-methoxy-2,4-dihydro-indeno[1,2-c]pyrazol-6-yloxy]-3-pyrrolidin-1-yl-propan-2-ol] are 99.5%, 5.13 nM and 2 nM.
For `COc1cc2c(cc1OCC(O)CN1CCCC1)Cc1c-2n[nH]c1Nc1ccc(F)c(Cl)c1` (stereo not drawn) [Compound 280, 1-[3-(3-Chloro-4-fluoro-phenylamino)-7-methoxy-2,4-dihydro-indeno[1,2-c]pyrazol-6-yloxy]-3-pyrrolidin-1-yl-propan-2-ol], in that order: 102%, 1.72 nM and 363 nM.
On the same counts, the results for `COc1cc2c(cc1F)Cc1c-2n[nH]c1Nc1ccc(F)cc1` [Compound 361, (6-Fluoro-7-methoxy-2,4-dihydro-indeno[1,2-c]pyrazol-3-yl)-(4-fluoro-phenyl)-amine] are 100%, 11.6 nM and 43 nM.
On to `CCOc1cc2c(cc1OCC)C(C)c1c-2n[nH]c1Nc1cccc(OC)c1` (stereo not drawn) [Compound 348, (6,7-Diethoxy-4-methyl-2,4-dihydro-indeno[1,2-c]pyrazol-3-yl)-(3-methoxy-phenyl)-amine], for which, in experiment [1], the inhibition at 10 µM worked out at 97.5% and the half-inhibitory concentration (IC50) was 25.3 nM. Also, the half-inhibitory concentration (IC50) on c-Abl kinase turned out to be 11 nM.
As for `COc1cc2c(cc1OCCCN1CCOCC1)Cc1c-2n[nH]c1Nc1cccnc1` [Compound 129, [7-Methoxy-6-(3-morpholin-4-yl-propoxy)-2,4-dihydro-indeno[1,2-c]pyrazol-3-yl]-pyridin-3-yl-amine], the inhibition at 10 µM in experiment [1] is 53.5%. In addition, the IC50 was 36.7 nM in experiment [1]; 10800 nM and 2360 nM on c-Abl kinase.
In the case of `COCCCOc1cc2c(cc1OCCCOC)-c1n[nH]c(Nc3ccc(F)c(Cl)c3)c1C2` [Compound 287, [6,7-Bis-(3-methoxy-propoxy)-2,4-dihydro-indeno[1,2-c]pyrazol-3-yl]-(3-Chloro-4-fluoro-phenyl)-amine], the inhibition at 10 µM in experiment [1] worked out at 92.5%. In addition, the IC50 came to 26.2 nM in experiment [1] and 3450 nM on c-Abl kinase.
For `COc1cc2c(cc1OC)-c1n[nH]c(Nc3ccc(OCc4ccccc4)cc3)c1C2` [Compound 218, (4-Benzyloxy-phenyl)-(6,7-dimethoxy-2,4-dihydro-indeno[1,2-c]pyrazol-3-yl)-amine], in that order: 81%, 2010 nM and 439 nM.
On to `COCCCOc1cc2c(cc1OCCCOC)-c1n[nH]c(Nc3cccc(OC)c3)c1C2` [Compound 284, [6,7-Bis-(3-methoxy-propoxy)-2,4-dihydroindeno[1,2-c]pyrazol-3-yl]-(3-methoxy-phenyl)-amine], for which, in experiment [1], the inhibition at 10 µM was 84.6% and the half-inhibitory concentration (IC50) was determined as 5.09 nM. Besides, the half-maximal inhibitory concentration (IC50) at c-Abl kinase stood at 69 nM.
Turning to `COc1cccc(Nc2[nH]nc3c2Cc2cc(Br)c(OC)cc2-3)c1` [Compound 370, (6-Bromo-7-methoxy-2,4-dihydro-indeno[1,2-c]pyrazol-3-yl)-(3-methoxy-phenyl)-amine], in experiment [1], the inhibition at 10 µM was 94% and the 50% inhibitory concentration (IC50) turned out to be 12.2 nM. On c-Abl kinase, the half-maximal inhibitory concentration (IC50) turned out to be 6 nM.
On the same counts, the results for `COc1cc2c(cc1F)Cc1c-2n[nH]c1Nc1ccc(F)c(Cl)c1` [Compound 359, (3-Chloro-4-fluoro-phenyl)-(6-fluoro-7-methoxy-2,4-dihydro-indeno[1,2-c]pyrazol-3-yl)-amine] are 98.5%, 41.5 nM and 143 nM.
On the same counts, the results for `COc1cc2c(cc1OCCCN1CCCC1)Cc1c-2n[nH]c1Nc1ccc(F)c(Cl)c1` [Compound 181, (3-Chloro-4-fluoro-phenyl)-[7-methoxy-6-(3-pyrrolidin-1-yl-propoxy)-2,4-dihydro-indeno[1,2-c]pyrazol-3-yl]-amine] are 74.5%, 15.4 nM and 56 nM.
On the same counts, the results for `COc1cc2c(cc1OCCCN1CCCC1)Cc1c-2n[nH]c1Nc1cccc(F)c1` [Compound 180, (3-Fluoro-phenyl)-[7-methoxy-6-(3-pyrrolidin-1-yl-propoxy)-2,4-dihydro-indeno[1,2-c]pyrazol-3-yl]-amine] are 98.5%, 13.3 nM and 82 nM.

Source of the values: patent US7196110B2, “N-substituted tricyclic 3-aminopyrazoles as inhibitors for the treatment of cell proliferative disorders” (Janssen Phamaceutica N.V., priority 2002, dated 2007).
